In paper PMC2215435 (The Journal of General Physiology, 1981):
Like-named read-outs stand apart in the source and are kept apart here.

System: potassium channel
Type: cell-based, squid Loligo pealei
Conditions: for rate constant of block b: calculated from Kd = l/b and tau decay (Table IV); for tau decay / blocking rate constant K (fit of current with Eq. 2) / unblocking rate constant L (fit of current with Eq. 2): 30 μM; for blocking rate constant K (fit of current with Eq. 2) / unblocking rate constant L (fit of current with Eq. 2): Fig. 1B
[1] = +100 mV, several experiments, Fig. 3B, r = 0.98

| Compound | rate constant of unblock l (+60 mV (Table IV)) | rate constant of block b (+60 mV) | rate constant of unblock l (+80 mV (Table IV)) | rate constant of block b (+80 mV) | rate constant of unblock l (+100 mV (Table IV)) | rate constant of block b (+100 mV) | tau decay (+100 mV, 6 °C) | tau decay (+100 mV, 8 °C) | tau decay (+100 mV, 16 °C) | blocking rate constant K (fit of current with Eq. 2) (+60 mV) | unblocking rate constant L (fit of current with Eq. 2) (+60 mV) | blocking rate constant K (fit of current with Eq. 2) (+100 mV) | unblocking rate constant L (fit of current with Eq. 2) (+100 mV) | time constant of decay of potassium current (tau decay) (10 μM, +100 mV) | time constant of decay of potassium current (tau decay) (33 μM, +100 mV) | time constant of decay of potassium current (tau decay) (100 μM, +100 mV) | b from straight line 1/tau decay = b[QA] + l [1] | l from straight line 1/tau decay = b[QA] + l [1] |
| --- | --- | --- | --- | --- | --- | --- | --- | --- | --- | --- | --- | --- | --- | --- | --- | --- | --- | --- |
| CCCCCCC[N+](CC)(CC)CC [C7TE, heptyltriethylammonium] | 0.071 ms-1 | 2.8 ms-1 mM-1 | 0.072 ms-1 | 3.4 ms-1 mM-1 | 0.063 ms-1 | 3.6 ms-1 mM-1 | – | – | – | – | – | – | – | – | – | – | – | – |
| CCCCCCCCC[N+](CC)(CC)CC [C9TE, nonyltriethylammonium] | 0.030 ms-1 | 5.5 ms-1 mM-1 | 0.028 ms-1 | 6.1 ms-1 mM-1 | 0.033 ms-1 | 7.3 ms-1 mM-1 | – | – | – | – | – | – | – | – | – | – | – | – |
| CCCCCCCCCC[N+](CC)(CC)CC [C10TE, decyltriethylammonium] | 0.019 ms-1 | 5.2 ms-1 mM-1 | 0.019 ms-1 | 6.0 ms-1 mM-1 | 0.023 ms-1 | 6.7 ms-1 mM-1 | 5.78 ms | 3.83 ms | 2.06 ms | – | – | – | – | – | – | – | – | – |
| CCCCCCCCCC[N+](CCO)(CCO)CCO [C10TEtoh, decyltriethanolammonium] | 0.084 ms-1 | 0.43 ms-1 mM-1 | 0.097 ms-1 | 0.55 ms-1 mM-1 | 0.110 ms-1 | 0.65 ms-1 mM-1 | – | – | – | – | – | – | – | – | – | – | – | – |
| CCCCCCCCCC[N+](CCC)(CCC)CCC [C10TP, decyltripropylammonium] | 0.015 ms-1 | 0.13 ms-1 mM-1 | 0.016 ms-1 | 0.15 ms-1 mM-1 | 0.015 ms-1 | 0.17 ms-1 mM-1 | – | – | – | – | – | – | – | – | – | – | – | – |
| CCCCCCCC[N+](CC)(CC)CCO [CsDEEtoh, octyldiethylethanolammonium] | – | 6.2 ms-1 mM-1 | – | 8.0 ms-1 mM-1 | – | 9.4 ms-1 mM-1 | – | – | – | 0.162 ms-1 | 0.118 ms-1 | 0.234 ms-1 | 0.112 ms-1 | – | – | – | – | – |
| CCCCCCCC[N+](CC)(CC)CCCO [CsDEProh, octyldiethylpropanolammonium] | 0.0236 ms-1 | 2.56 ms-1 mM-1 | 0.0308 ms-1 | 3.55 ms-1 mM-1 | 0.0262 ms-1 | 4.10 ms-1 mM-1 | – | – | – | – | – | – | – | 11.42 ms | 6.88 ms | 2.21 ms | 4.0 ms-1 mM-1 | 0.032 ms-1 |
| CCCCCCCC[N+](CC)(CC)CC [CsTE, octyltriethylammonium] | 0.038 ms-1 | 5.1 ms-1 mM-1 | 0.038 ms-1 | 5.5 ms-1 mM-1 | 0.043 ms-1 | 5.9 ms-1 mM-1 | – | – | – | – | – | – | – | – | – | – | – | – |
| CCCCCCCC[N+](CCC)(CCC)CCC [CsTP, octyltripropylammonium] | 0.021 ms-1 | 0.95 ms-1 mM-1 | 0.031 ms-1 | 1.22 ms-1 mM-1 | 0.039 ms-1 | 1.40 ms-1 mM-1 | – | – | – | – | – | – | – | – | – | – | – | – |
| CC[N+](CC)(CCO)CCCc1ccccc1 [~PDEEtoh, phenylpropyldiethylethanolammonium] | 0.024 ms-1 | 3.4 ms-1 mM-1 | 0.037 ms-1 | 3.9 ms-1 mM-1 | 0.033 ms-1 | 4.3 ms-1 mM-1 | – | – | – | – | – | – | – | – | – | – | – | – |
| CC[N+](CC)(CC)CCCc1ccccc1 [~PTE, phenylpropyltriethylammonium] | 0.015 ms-1 | 2.5 ms-1 mM-1 | 0.013 ms-1 | 2.7 ms-1 mM-1 | 0.025 ms-1 | 3.5 ms-1 mM-1 | – | – | – | – | – | – | – | – | – | – | – | – |
